IC50 data for one compound are collected here from patent US20250304587A1, “WEE1 INHIBITOR, PREPARATION THEREFOR AND USE THEREOF” (JIANGSU TASLY DIYI PHARMACEUTICAL CO., LTD., priority 2022, published 2025).

The subject of one series is HT-29 cells. Kind of series: Cell Titer-Glo anti-proliferation, HT-29 cells. The format is cell-based, human. Particulars: 3 days, read-out: Anti-proliferative activity HT-29 (IC50 class). In outline:
(§1)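 Each line was exposed to graded compound concentrations for 3 days at 37 °C, 5% CO2, with final DMSO at 0.2%. Viability was measured by Cell Titer-Glo luminescence, with untreated cells as the maximum and medium as the minimum signal. IC50 came from a variable-slope log(inhibitor)-response fit.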
A general note: Cellular ATP, detected with luciferase, serves as a proxy for viable cell number.

A further series has as its target CYP2D6 (Homo sapiens (Human), UniProt P10635). The series can be described thus: Cytochrome P450 inhibition (fluorescence), CYP2D6. The format is in vitro ADME. The settings on record: read-out: IC50 CYP2D6. Here is the method:
(§2) Enzymatic experiments were performed to quantify the inhibition of CYP450 enzyme activity of each isoform of CYP450 by small molecule inhibitors through fluorescence generated by the oxidation of the substrate by cytochrome P450. […] The Solution B composition used for the experiment was: 40 U/mL G6PDH (Sigma-aldrich, Cat #G6378). The substrate mix was 0.05× Solution A, 0.01× Solution B, 50 mM Potassium Phosphate, 0.01 mM BOMCC/0.01 mM EOMCC/0.001 mM DBOMF. […] The data were analyzed and processed using GraphPad Prism 6 software to obtain IC50 values.

A further series concerns the target CYP 2B6 (Homo sapiens (Human), UniProt P20813). Kind of series: Cytochrome P450 inhibition, CYP2B6. It counts as in vitro ADME. The procedure: as §2
Another series has as its target CYP2C8 (Homo sapiens (Human), UniProt P10632). The series can be described thus: Cytochrome P450 inhibition (fluorescence), CYP2C8. The format is in vitro ADME. The settings on record: read-out: IC50 CYP2C8. Here is the method:
as §2

The subject of another series is HUVEC cells. Kind of series: Cell Titer-Glo anti-proliferation, normal cells HUVEC. It counts as cell-based. A digest of the protocol: (§3)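 Cells were exposed to serial compound concentrations (0.2% DMSO final) for 3 days at 37 °C, 5% CO2, then lysed with Cell Titer-Glo and read by luminescence. Inhibition was referenced to untreated-cell and medium-only controls, and IC50 came from a four-parameter variable-slope log(inhibitor)–response fit.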

The subject of the next series is BxPC3 cells. Kind of series: Cell Titer-Glo anti-proliferation, BxPC3 cells. It counts as cell-based, human. The settings on record: 3 days, read-out: Anti-proliferative activity BxPC3 (IC50 class). In outline: as §1
In the next series the target is CYP3A4 (Homo sapiens (Human), UniProt P08684). The series can be described thus: Cytochrome P450 inhibition (fluorescence), CYP3A4. The format is in vitro ADME. Particulars: read-out: IC50 CYP3A4. The procedure: as §2
CYP3A4, sequence (P08684 whole entry): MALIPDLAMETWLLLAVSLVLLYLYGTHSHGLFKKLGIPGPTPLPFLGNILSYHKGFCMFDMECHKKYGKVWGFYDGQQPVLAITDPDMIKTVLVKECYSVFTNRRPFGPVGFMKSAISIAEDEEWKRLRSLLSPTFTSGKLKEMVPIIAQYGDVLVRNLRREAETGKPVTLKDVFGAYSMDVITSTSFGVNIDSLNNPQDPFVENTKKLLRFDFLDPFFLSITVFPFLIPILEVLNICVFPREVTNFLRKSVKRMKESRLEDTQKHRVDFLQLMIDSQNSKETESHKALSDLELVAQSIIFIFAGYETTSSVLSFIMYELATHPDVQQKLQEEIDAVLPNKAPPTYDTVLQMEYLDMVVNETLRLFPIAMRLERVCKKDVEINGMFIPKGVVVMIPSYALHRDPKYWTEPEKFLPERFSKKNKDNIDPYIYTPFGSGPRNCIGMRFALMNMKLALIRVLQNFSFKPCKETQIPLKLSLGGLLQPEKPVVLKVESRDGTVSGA
A further series has as its target Wee1 protein (Homo sapiens (Human), UniProt P30291). Kind of series: TR-FRET binding of compound to Wee1 protein and Tracer 178. Particulars: Tracer 178, read-out: IC50, inhibitory activity against Wee1 kinase.
Another series relates to OVCAR-3 cells. Kind of series: Cell Titer-Glo anti-proliferation, OVCAR-3 cells. It counts as cell-based. Particulars: 3 days, read-out: Anti-proliferative activity OVCAR-3 (IC50 class). In outline: as §1
A further series concerns the target CYP1A2 (Homo sapiens (Human), UniProt P05177). The series can be described thus: Cytochrome P450 inhibition (fluorescence), CYP1A2. The format is in vitro ADME. Here is the method: as §2
Another series relates to HK2 cells. Kind of series: Cell Titer-Glo anti-proliferation, normal cells HK2. It counts as cell-based. A digest of the protocol: as §3
The target of a further series is CYP2C19 (Homo sapiens (Human), UniProt P33261). The series can be described thus: Cytochrome P450 inhibition (fluorescence), CYP2C19. The settings on record: read-out: IC50 CYP2C19. The format is in vitro ADME. The procedure:
as §2

For the next series, the target named is CYP2C9 (Homo sapiens (Human), UniProt P11712). The series can be described thus: Cytochrome P450 inhibition (fluorescence), CYP2C9. It counts as in vitro ADME. Particulars: read-out: IC50 CYP2C9. Here is the method:
as §2

Where only a bound is given, the exact number is not on record here.

CYP2C9, sequence (P11712 whole entry): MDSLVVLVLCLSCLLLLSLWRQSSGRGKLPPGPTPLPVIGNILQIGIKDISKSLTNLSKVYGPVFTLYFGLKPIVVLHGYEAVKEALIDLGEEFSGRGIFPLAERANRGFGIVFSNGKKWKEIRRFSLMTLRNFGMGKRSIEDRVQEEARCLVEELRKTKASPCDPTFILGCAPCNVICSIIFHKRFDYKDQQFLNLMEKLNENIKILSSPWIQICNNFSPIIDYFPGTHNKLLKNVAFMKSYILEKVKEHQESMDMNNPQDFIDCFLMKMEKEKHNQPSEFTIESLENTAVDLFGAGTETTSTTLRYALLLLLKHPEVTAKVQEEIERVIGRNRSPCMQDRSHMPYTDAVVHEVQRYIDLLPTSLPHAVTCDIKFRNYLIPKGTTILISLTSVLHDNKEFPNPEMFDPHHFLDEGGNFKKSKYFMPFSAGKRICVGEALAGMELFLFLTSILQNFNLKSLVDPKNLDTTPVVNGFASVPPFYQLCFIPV
Wee1 protein, sequence (P30291 whole entry): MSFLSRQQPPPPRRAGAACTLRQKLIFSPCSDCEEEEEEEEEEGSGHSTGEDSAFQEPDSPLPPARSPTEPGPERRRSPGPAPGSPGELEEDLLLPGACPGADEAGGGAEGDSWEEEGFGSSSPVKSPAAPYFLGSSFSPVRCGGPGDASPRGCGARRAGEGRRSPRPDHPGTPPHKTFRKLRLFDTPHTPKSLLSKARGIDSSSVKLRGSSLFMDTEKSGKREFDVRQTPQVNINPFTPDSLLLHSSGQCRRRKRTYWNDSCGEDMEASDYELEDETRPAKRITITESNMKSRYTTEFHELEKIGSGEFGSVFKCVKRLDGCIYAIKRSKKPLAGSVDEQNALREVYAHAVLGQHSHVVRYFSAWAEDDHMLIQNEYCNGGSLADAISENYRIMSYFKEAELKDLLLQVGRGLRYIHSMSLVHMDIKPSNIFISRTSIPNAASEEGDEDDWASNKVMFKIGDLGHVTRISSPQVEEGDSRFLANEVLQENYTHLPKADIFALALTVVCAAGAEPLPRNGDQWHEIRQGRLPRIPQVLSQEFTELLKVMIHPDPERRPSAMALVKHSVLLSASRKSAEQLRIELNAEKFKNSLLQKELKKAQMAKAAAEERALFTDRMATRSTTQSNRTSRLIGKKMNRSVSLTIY
CYP2D6, sequence (P10635 whole entry, canonical isoform): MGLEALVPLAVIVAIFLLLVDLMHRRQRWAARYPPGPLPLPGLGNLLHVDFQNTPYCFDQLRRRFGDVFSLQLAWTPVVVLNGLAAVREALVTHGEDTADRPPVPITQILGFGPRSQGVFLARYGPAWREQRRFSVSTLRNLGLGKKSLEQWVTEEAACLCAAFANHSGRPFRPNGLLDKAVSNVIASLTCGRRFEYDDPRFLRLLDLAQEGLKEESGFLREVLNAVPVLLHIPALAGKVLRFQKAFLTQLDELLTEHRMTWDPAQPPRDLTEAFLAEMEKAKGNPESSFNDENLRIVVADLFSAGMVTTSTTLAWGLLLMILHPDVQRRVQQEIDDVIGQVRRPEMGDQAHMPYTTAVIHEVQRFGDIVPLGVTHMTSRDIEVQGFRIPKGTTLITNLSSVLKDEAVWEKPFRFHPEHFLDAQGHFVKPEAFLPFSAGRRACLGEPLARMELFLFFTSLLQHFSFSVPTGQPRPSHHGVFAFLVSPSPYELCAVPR
CYP2C19, sequence (P33261 whole entry): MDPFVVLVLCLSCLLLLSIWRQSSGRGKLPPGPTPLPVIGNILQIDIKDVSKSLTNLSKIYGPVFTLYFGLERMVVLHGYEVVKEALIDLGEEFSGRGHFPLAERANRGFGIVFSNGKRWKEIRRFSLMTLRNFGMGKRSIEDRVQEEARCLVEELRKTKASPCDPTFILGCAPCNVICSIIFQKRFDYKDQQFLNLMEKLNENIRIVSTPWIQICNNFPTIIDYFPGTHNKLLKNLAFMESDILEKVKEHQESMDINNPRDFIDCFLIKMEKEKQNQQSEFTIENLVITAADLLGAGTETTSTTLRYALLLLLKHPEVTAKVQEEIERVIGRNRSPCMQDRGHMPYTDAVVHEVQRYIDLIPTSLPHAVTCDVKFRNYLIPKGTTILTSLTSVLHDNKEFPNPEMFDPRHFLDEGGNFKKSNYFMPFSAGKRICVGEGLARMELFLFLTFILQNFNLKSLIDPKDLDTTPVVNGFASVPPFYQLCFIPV
CYP1A2, sequence (P05177 whole entry): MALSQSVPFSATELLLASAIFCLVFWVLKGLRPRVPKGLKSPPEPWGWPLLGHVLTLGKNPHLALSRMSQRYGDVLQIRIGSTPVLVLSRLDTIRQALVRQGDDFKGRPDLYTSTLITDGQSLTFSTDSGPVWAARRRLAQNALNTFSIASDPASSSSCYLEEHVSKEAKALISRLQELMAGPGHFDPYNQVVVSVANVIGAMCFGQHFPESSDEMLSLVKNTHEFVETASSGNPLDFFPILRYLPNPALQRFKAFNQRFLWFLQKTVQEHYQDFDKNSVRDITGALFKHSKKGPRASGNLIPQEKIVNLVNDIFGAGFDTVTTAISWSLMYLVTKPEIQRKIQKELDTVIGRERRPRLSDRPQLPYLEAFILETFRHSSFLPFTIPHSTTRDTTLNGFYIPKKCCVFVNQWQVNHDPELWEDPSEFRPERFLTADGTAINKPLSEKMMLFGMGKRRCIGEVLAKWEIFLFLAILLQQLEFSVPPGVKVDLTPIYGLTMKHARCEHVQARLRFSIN
CYP 2B6, sequence (P20813 whole entry): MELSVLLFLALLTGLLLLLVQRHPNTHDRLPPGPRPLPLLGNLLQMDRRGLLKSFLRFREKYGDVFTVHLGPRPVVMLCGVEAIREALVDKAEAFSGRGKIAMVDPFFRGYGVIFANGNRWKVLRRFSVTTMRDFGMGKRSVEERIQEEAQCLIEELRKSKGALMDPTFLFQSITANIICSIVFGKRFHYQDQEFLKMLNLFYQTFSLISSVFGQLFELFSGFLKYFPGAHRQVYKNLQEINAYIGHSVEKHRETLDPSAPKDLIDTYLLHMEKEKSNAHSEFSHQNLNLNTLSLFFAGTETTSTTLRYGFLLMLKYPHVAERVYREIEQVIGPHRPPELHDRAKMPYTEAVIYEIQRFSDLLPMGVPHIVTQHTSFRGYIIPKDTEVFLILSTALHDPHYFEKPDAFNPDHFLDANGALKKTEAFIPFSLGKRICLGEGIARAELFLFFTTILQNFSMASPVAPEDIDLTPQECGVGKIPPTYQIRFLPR
CYP2C8, sequence (P10632 whole entry): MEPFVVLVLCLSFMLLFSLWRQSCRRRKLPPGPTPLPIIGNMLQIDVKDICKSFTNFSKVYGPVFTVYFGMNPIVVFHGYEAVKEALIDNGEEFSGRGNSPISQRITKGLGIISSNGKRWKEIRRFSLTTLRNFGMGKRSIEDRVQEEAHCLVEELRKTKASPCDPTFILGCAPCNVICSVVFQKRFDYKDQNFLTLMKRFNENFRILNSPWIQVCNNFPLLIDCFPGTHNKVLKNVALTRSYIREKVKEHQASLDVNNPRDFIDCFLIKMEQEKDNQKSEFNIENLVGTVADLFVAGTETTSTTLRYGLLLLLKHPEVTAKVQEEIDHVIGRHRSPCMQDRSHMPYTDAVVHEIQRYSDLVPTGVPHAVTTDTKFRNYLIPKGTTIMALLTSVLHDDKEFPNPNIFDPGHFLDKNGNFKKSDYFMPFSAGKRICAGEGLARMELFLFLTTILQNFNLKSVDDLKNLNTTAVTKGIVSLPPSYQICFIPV

The term IC50 denotes the concentration that inhibits the measured activity by half. Take `C=CCn1c(=O)c2cnc(Nc3ccc(N4CCC5(CCN(C)CC5)CC4)cc3)nc2n1-c1ccc2c(n1)[C@H](O)C1(CC2)CC1` [Compound 37b]: the IC50 is 100 to 1000 nM with HT-29 cells; > 10000 nM at CYP2D6; > 10000 nM against CYP 2B6; > 10000 nM on CYP2C8; > 10000 nM in the series on HUVEC cells; 100 to 1000 nM in the series on BxPC3 cells. The IC50 on CYP3A4 was > 10000 nM; on Wee1 protein it was 5 to 10 nM; in the series with OVCAR-3 cells it was 100 to 1000 nM; on CYP1A2 it was > 10000 nM; in the series with HK2 cells, 1530 nM; on CYP2C19 it was > 10000 nM. The IC50 on CYP2C9 is > 10000 nM.
